According to article PMC3277506, “Extra-Renal Elimination of Uric Acid via Intestinal Efflux Transporter BCRP/ABCG2” (PLoS ONE, 2012):

Key:
rMdr1a = target: T1, rMdr1a (Rattus norvegicus, UniProt Q6PSM0); assay: Bidirectional transport of uric acid in LLC-PK1 cells expressing rMdr1a; type: in vitro ADME; settings: data not shown
T1 construct: expressed in transfected cells; host or cells: LLC-PK1 cells

hMDR1 = target: T2, hMDR1 (Homo sapiens, UniProt P08183); assay: [14C]uric acid uptake by hMDR1-expressing membrane vesicles; type: biochemical; settings: [14C]uric acid 20 µM, 5 min, 37°C, 4 mM ATP or AMP
T2 construct: purchased GenoMembrane Inc. (Yokohama, Japan); host or cells: Sf9 cells
Procedure: (§1) hBCRP/rBcrp, hMRP2/rMrp2, or hMDR1-expressing membrane vesicles prepared from Sf9 cells were purchased from GenoMembrane Inc. (Yokohama, Japan). Uptake experiments were conducted as described previously. Briefly, after a pre-incubation for 5 min at 37°C, membrane vesicles (50 µg protein/50 µL final reaction volume) were incubated for 5 min at 37°C in the presence of 4 mM ATP or AMP in assay buffer (1 M KCl, 1 M MgCl2, and 100 mM MOPS-Tris, pH 7.0) containing [^14C]uric acid (1 µCi/mL). The uptake reaction was terminated by adding 1 mL ice-cold washing buffer (1 M KCl, and 100 mM MOPS-Tris, pH 7.0) to the membrane solution, and the mixture was rapidly filtered through a nitrocellulose filter (0.45 µm pore size, Millipore, Bedford, MA). The filters were washed twice with 5 mL ice-cold washing buffer. The filters were dried and dissolved in Clearsol-I for quantitation of radioactivity.

rBcrp = target: T3, rBcrp (Rattus norvegicus, UniProt Q80W57); assay: [14C]uric acid uptake by rBcrp-expressing membrane vesicles; type: biochemical; parameters: purchased GenoMembrane Inc. (Yokohama, Japan); host or cells: Sf9 cells
T3 sequence (Q80W57 1-657): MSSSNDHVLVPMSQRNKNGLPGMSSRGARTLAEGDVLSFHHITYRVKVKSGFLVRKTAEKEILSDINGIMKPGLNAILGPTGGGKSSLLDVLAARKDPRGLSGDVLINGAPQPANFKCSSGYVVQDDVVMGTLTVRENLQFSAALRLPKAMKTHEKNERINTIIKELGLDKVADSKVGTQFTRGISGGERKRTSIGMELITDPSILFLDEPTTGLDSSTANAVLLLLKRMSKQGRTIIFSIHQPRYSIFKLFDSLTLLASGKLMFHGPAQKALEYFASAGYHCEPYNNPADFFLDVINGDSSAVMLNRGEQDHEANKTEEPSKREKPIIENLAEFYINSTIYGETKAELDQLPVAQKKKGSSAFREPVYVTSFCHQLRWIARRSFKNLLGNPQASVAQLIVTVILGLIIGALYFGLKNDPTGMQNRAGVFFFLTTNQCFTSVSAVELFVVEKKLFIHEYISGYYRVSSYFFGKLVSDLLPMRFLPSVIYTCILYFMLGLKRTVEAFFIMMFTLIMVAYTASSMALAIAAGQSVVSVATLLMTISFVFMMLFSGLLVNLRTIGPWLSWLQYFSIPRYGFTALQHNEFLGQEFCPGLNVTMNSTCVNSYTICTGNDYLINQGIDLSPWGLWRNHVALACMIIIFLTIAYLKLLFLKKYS
Procedure: as §1

[1] = humans; cited from earlier work
[2] = Intestinal secretion of endogenous uric acid, in situ intestinal closed loop method, oxonate-treated rats; type: in vivo, rat; settings: 60 min, no inhibitor
Procedure: We evaluated intestinal secretion of endogenous uric acid according to the method described previously, with some modifications. Rats were anesthetized with 50% urethane and treated with oxonate by the same method as in the in vivo animal study described above. Intestinal closed loops were made at different segments: jejunum (10 cm), ileum (10 cm), and colon (3–5 cm). Phosphate-buffered solution (PB, 0.075 M NaH2PO4 - 0.075 M Na2HPO4, pH 6.5) or inhibitor-containing PB was injected into the intestinal loop. After 60 min, the remaining luminal content in each loop was washed out and collected for quantitation. Blood was obtained from the jugular vein at 1, 20, 40 and 60 min. Plasma was obtained by centrifugation and used for quantitation.
The following equation was used to calculate intestinal secretory clearance (µL/min/cm loop) and estimated total intestinal secretory clearance (CLintestine, estimated) (mL/min): [drawing 1] [drawing 2] [drawing 3] where A is the amount of uric acid secreted into the intestinal lumen of each loop for 60 min, L is the length of the intestine, and AUC is area under the plasma concentration-time curve.

hBCRP = target: T4, hBCRP (Homo sapiens, UniProt Q9UNQ0); assay: [14C]uric acid uptake by hBCRP-expressing membrane vesicles; type: biochemical; settings: [14C]uric acid 20 µM, 5 min, 37°C, 4 mM ATP or AMP
T4 construct: purchased GenoMembrane Inc. (Yokohama, Japan); host or cells: Sf9 cells
T4 sequence (Q9UNQ0 1-655): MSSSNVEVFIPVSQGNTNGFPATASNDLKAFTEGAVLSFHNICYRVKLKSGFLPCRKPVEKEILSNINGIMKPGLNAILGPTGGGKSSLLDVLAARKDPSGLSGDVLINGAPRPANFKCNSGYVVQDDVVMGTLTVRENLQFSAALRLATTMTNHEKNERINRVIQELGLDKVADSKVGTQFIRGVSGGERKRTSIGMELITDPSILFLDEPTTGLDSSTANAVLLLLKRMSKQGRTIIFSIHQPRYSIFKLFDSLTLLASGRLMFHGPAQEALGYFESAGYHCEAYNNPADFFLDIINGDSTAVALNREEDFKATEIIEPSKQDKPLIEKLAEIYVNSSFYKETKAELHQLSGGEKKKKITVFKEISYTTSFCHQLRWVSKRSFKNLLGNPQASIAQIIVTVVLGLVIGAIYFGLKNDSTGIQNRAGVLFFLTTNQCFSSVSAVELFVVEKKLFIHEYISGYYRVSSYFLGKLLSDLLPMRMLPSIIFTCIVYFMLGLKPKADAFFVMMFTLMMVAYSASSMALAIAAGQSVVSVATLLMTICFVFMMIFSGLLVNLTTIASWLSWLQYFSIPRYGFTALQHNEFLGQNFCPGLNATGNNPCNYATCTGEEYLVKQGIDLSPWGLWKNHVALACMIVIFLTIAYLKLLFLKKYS
Procedure: as §1

T1 sequence (Q6PSM0 1-1272): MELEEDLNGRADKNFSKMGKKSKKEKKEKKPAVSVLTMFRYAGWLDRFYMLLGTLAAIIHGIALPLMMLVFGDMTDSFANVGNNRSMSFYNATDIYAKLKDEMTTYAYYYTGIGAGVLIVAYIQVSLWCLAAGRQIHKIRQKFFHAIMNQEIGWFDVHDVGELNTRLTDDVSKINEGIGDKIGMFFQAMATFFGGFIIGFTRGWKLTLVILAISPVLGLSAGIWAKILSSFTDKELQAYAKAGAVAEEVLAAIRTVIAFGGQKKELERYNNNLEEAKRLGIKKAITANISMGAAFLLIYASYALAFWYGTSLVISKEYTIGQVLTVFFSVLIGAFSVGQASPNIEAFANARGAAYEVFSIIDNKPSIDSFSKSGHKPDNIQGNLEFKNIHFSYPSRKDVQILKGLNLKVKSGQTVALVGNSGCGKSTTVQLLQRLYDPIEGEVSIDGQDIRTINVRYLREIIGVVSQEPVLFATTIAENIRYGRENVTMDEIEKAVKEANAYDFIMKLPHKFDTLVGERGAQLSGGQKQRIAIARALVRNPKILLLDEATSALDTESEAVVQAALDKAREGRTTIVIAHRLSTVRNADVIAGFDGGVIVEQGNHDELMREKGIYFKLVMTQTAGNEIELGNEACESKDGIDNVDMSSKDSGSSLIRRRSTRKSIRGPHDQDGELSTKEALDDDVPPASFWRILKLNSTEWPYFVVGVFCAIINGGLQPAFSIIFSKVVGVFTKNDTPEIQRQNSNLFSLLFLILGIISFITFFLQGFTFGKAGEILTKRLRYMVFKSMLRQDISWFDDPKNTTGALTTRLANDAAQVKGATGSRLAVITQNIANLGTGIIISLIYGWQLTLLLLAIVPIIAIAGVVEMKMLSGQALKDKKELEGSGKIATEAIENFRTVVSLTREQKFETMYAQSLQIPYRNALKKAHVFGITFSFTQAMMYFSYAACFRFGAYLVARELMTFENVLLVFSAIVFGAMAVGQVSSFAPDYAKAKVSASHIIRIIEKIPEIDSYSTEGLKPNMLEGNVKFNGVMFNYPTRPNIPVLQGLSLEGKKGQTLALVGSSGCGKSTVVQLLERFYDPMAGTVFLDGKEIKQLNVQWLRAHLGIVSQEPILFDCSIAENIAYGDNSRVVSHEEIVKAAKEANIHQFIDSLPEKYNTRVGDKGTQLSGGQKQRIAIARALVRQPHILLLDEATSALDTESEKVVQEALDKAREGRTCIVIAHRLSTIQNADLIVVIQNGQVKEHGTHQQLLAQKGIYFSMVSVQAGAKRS
T2 sequence (P08183 whole entry): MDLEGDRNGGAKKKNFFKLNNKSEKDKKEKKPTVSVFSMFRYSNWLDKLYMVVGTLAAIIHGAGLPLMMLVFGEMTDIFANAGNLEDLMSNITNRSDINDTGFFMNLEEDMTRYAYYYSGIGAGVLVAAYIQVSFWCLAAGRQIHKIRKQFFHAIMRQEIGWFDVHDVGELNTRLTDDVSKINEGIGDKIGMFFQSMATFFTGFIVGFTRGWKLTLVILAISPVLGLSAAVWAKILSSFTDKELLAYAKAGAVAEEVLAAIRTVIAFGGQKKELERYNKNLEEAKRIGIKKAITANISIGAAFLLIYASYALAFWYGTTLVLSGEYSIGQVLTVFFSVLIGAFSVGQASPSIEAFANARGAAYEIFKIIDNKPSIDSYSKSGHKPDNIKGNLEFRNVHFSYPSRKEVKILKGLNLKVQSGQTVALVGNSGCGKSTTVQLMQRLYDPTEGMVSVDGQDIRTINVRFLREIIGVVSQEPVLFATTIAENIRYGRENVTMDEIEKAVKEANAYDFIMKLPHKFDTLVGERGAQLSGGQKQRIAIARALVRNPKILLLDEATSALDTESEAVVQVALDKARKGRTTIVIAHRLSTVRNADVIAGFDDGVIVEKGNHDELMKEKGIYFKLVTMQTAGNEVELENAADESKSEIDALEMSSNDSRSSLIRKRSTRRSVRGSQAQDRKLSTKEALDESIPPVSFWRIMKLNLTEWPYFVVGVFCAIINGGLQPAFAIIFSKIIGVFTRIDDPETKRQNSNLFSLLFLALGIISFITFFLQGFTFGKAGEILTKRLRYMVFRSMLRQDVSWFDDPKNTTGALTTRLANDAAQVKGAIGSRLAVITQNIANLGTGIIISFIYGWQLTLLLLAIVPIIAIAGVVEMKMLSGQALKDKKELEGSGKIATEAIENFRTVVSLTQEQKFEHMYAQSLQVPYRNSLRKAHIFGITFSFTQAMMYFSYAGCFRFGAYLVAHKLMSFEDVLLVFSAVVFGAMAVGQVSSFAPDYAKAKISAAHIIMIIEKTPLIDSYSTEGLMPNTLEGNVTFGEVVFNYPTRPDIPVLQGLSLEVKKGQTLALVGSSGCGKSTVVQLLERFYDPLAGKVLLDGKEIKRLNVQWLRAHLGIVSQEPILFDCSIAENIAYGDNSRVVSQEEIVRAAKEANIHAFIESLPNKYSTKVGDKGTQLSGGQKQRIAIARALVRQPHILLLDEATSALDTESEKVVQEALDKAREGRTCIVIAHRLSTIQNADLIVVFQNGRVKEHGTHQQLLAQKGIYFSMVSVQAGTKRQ

Secretory versus absorptive transport of uric acid (rMdr1a): no significant difference
ATP-dependent uric acid uptake (hMDR1): inactive
Vmax of uric acid transport by rBcrp (rBcrp; ATP-dependent uptake, maximum uric acid concentration 5 mM): 67.3±4.21 nmol/5 min/mg protein
Uptake of uric acid in the presence of ATP versus AMP (rBcrp; [14C]uric acid 20 µM, 5 min, 37°C, 4 mM ATP or AMP): significantly higher
Intestinal secretion clearance of endogenous uric acid ([2]; colon closed loop): 0.76±0.17 µL/min/cm loop
Intestinal secretion clearance of endogenous uric acid ([2]; ileum closed loop): 1.58±0.13 µL/min/cm loop
Intestinal secretion clearance of endogenous uric acid ([2]; jejunum closed loop): 0.49±0.03 µL/min/cm loop
Uptake of uric acid in the presence of ATP versus AMP (hBCRP): significantly higher
SMILES: O=c1[nH]c(=O)c2[nH]c(=O)[nH]c2[nH]1 [uric acid]
Biliary clearance of uric acid [1]: 0.1 to 0.3 mL/min
Uric acid concentration in bile [1]: 1 to 2 mg/dL
Urinary clearance of uric acid [1]: 5.8 to 6.3 mL/min
